The test system of one data set is C57BL/6 mice. Nature of the data set: Glycemia and dietary intake in C57BL/6 mice. Type of data set: in vivo, mouse. To be noted: 1 week. From the text:
The mean glycemic values at the beginning and end of the experiment are represented for each group (n=3) with their standard deviations.

Data set [1] has as its target GPBP (Mus musculus, UniProt Q9EQG9). The conditions noted are these: 10 mM, 3 h, FIG. 6B. The method, then: The cells were lysed in a lyse buffer ([…], […], 1% Triton X-100, 1 μM phenylmethylsulphonylfluoride (PMSF) and 10 μg/mL leupeptin) for 30 min at 4° C. Lysates were centrifuged at 16000×g for 5 min at 4° C. and the total protein concentration of the supernatants determined with the Bradford reagent (Bio-Rad). The samples were analyzed by Western blot using the anti-GPBP mAb-N27 and detected with chemoluminiscence (ECL Prime, GE Healthcare).

A short description of another data set: clinical. The conditions noted are these: both, human, in vivo, oral, 1240 mg, tmax, median [minimum-maximum], 1240 mg single administration without food.
A further data set addresses GPBP and AKT (Homo sapiens, UniProt Q9Y5P4). The conditions noted are these: 5 mM. The method, then:
Two hundred nanograms of AS160 (Origene Technologies) was incubated either in the absence (−) or in the presence (+) of FLAG-GPBP (270 ng), AKT (Millipore) (200 ng) and SLN1 or SLN2 (5 mM) in phosphorylation solution (β-glycerophosphate 25 mM (pH 7.0), EDTA 0.5 mM, EGTA 0.5 mM, MgCl2 8 mM, MnCl2 5 mM, DTT 1 mM) without ATP for 10 min at RT, after which [γ-^32P] ATP (Perkin Elmer) (0.132 μM) and ATP (Sigma) (100 μM) were added. Reaction cocktails (25 μl) were incubated at 30° C. for 15 min, and stirred (350 rpm).

Data set [2] concerns IRS2 knockout mice (IRS2-/-). The conditions noted are these: 100 mg/kg/day, 8 weeks. Here is the method: At the 8-week treatment time point, there were 6 mice in each treatment group. Adipose tissue was collected upon sacrifice and frozen in liquid N2. Lipidomics analysis of the tissue was then performed using HPLC/MS. […] Statistical differences between the experimental groups shown in FIG. 22 were assessed by Student's T test. P value of <0.01 is indicated by **.

Data set [3] concerns IRS2 knockout mice (KO IRS2). Nature of the data set: Serum triglycerides in IRS2 knockout mice. Type of data set: in vivo, mouse. The conditions noted are these: 100 mg/kg/day, 8 weeks, fasting. The method, then: At the 8-week treatment time point, there were 8 mice in each of the WT groups, 6 mice in the KO IRS2 untreated control group, 7 mice in the KO IRS2 SLN1 treated group, and 8 mice in the KO SLN2 treated group. Blood was collected at the time of sacrifice and used to measure TG under fasting conditions. […] Statistical differences between the experimental groups shown in FIG. 21 were assessed by Student's T test. P value of <0.05 is indicated by *.

For data set [4] the following is noted: 2:1 complex (2 molecules of metformin for 1 of glycine), aqueous solution.
The next data set concerns C2C12 myotubes. Nature of the data set: Glucose concentration of C2C12 myotube cultures in M1 macrophage conditioned media. The conditions noted are these: macrophages treated with 10 mM for 2 h, then LPS/IFNγ 16 h. Type of data set: cell-based, mouse. The method, then:
There is considerable evidence showing that inflammation and hyperglycemia are interconnected: inflammation induces hyperglycemia and reciprocally hyperglycemia induces inflammation with the molecular bases not elucidated yet. To explore the participation of GPBP, glucose intake under normoglycemic conditions with conditioned media generated by macrophages differentiated to a proinflammatory M1 phenotype was monitored.
[…]. The glucose concentration of the myotube cultures was determined at different times with Glucocard (Arkray). The controls used were the C2C12 cultured with media conditioned with no stimulated macrophages (Cells) or with M1 conditioned media (M1). The initial glucose levels (time 0) were used as a reference (100%) in each series.

The subject of the next data set is insulin receptor (IRβ). To be noted: 10 mM, 3 h. From the text: Next, cells were washed with PBS and their membrane proteins were extracted.
Data set [5] has as its target GPBP (Homo sapiens, UniProt Q9Y5P4). To be noted: 1 mM, FIG. 6A.
Data set [6] addresses T1, GPBP (Homo sapiens, UniProt Q9Y5P4).
T1 sequence (Q9Y5P4 1-624): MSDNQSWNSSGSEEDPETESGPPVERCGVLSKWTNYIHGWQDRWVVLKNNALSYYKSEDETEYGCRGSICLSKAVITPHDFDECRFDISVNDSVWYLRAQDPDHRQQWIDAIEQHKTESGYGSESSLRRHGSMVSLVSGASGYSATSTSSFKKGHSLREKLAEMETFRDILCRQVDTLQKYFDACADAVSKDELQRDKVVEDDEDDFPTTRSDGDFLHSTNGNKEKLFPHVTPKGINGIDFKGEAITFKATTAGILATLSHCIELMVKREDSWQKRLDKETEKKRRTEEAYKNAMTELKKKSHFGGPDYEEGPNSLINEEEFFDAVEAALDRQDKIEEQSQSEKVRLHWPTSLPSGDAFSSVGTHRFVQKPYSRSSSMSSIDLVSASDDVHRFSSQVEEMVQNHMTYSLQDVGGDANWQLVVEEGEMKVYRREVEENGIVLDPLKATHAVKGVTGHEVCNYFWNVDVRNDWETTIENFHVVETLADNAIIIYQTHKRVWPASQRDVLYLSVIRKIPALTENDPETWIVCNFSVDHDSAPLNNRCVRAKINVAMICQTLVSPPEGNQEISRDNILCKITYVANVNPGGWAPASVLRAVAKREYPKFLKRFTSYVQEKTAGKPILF

Data set [7] deals with IRS2 knockout mice (KO IRS2). In words: Body weight in IRS2 knockout mice. Type of data set: in vivo, mouse. To be noted: 100 mg/kg/day, 8 weeks. Here is the method: Body weight of the mice was measured prior to the onset of treatment, at 4 weeks after treatment, and at 8 weeks after treatment. There were 8 mice in each group at the pre-treatment and 4-week treatment time points. […] Statistical differences between the experimental groups shown in FIG. 20 were assessed by Student's T test. P value of <0.05 is indicated by *.

A further data set deals with GLUT4. In words: GLUT4 translocation (FIG. 19A).

Sequence of GPBP (Mus musculus, UniProt Q9EQG9) (Q9EQG9 whole entry): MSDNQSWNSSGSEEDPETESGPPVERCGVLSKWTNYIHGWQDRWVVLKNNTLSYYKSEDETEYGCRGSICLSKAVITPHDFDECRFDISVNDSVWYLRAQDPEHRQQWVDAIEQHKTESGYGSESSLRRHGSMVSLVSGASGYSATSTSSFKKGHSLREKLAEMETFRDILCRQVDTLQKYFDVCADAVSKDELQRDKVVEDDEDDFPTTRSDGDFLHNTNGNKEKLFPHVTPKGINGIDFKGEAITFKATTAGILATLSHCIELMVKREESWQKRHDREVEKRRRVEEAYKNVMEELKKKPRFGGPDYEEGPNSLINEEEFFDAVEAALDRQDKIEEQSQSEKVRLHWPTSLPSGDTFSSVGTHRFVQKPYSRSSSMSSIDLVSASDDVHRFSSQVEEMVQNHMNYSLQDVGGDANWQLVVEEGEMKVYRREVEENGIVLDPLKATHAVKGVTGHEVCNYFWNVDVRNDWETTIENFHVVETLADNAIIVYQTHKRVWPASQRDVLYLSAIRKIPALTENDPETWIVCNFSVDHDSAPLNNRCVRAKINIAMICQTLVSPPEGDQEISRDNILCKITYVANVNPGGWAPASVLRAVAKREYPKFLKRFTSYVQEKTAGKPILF

Turning to `CN(C)C(=N)NC(=N)N` [Metformin glycinate, N,N-dimethylimidodicarbonimidic diamide glycinate], in the data set on C57BL/6 mice (100 mg/kg/day mixed with solid food, n=3), the “glycemia, end vs beginning” value is recorded as “significantly reduced glycemia”. In the data set on C57BL/6 mice (100 mg/kg/day), the “extent of glycemia reduction compared to metformin hydrochloride” value was “to a greater extent” and the “food intake compared to untreated mice” value was “food intake was greater”. Moreover, the “GPBP dephosphorylation vs untreated or metformin treated cells” value at GPBP [1] is on record as “more GPBP dephosphorylation”. The time of peak concentration (Tmax) in the data set “clinical” is 1.5 h. The “GPBP and AKT cross activation” value at GPBP and AKT is “counteracted GPBP and AKT cross activation”. Also, in [2], the “adipose tissue triglyceride 16:0 compared to control IRS2−/−” value is recorded as “significantly lower” and the “adipose tissue triglyceride 18:1n-9c compared to control IRS2−/−” value is listed as “drastically reduced”. In data set [3], the “serum triglycerides compared to untreated KO IRS2” value is listed as “lower”. This compound registered a complexation constant in [4] of 712±19. Further, the “glucose levels of myotube cultures (hyperglycemic levels)” value with C2C12 myotubes is “maintained values at normoglycemic levels”. Further, in the data set on type 2 diabetes patients (1050.6 mg per day 30 days, then 1050.6 mg twice a day 30 days, p=0.008), the “A1c level after two months treatment” value is reported as 7.1±1.0%. The “A1c level before treatment” value with type 2 diabetes patients (DMMET01 group, baseline) is given as 8.1±0.8%. In the data set on type 2 diabetes patients (after two months treatment), the “reduction of the A1c level” value is listed as “more than 1%” and the “sensitivity to insulin (Glucose CLAMP)” value is on record as “did not change”. For the same compound, the “adverse events vs placebo” value with type 2 diabetes patients (two months treatment) is listed as “No statistically significant difference in adverse events”. Also, in the data set on insulin receptor (IRβ), the “accumulation of IRβ on the cell membrane vs metformin hydrochloride” value is reported as “significantly more accumulation”. The GPBP auto-phosphorylation activity entry at GPBP [5] is listed as “inhibition of GPBP auto-phosphorylation activity”. For the same compound, on GPBP [6] (1 mM, 24 h), the “high molecular weight GPBP aggregates” value is “high molecular weight aggregates formed”. In addition, the GPBP-LKB1 aggregates entry at GPBP [6] (FIG. 14) was “dissociates GPBP-LKB1 aggregates”. For the same compound, the “average body weight, post- vs pre-treatment” value in [7] is “significantly lower after 8 weeks than before treatment”. In addition, in the data set on GLUT4, the GLUT4 translocation result is “translocated GLUT4”.

For orientation: Tmax means the time from dosing to the highest level.
